Measured values reported in ChEMBL document CHEMBL2440052, “Quinazolinecarboline alkaloid evodiamine as scaffold for targeting topoisomerase I and sirtuins” (Bioorg Med Chem, 2013).
The source made the active and inactive calls. The rule behind the calls is not given here.

Columns and labels:
HepG2 = assay: Cytotoxicity against human HepG2 cells at 15 uM after 72 hrs by MTT assay relative to control; assay type: functional; details: HepG2, 72 h, values are per cent of control
MCF7 = assay: Cytotoxicity against human MCF7 cells at 15 uM after 72 hrs by MTT assay relative to control; assay type: functional; details: MCF7, 72 h, values are per cent of control
[1] = target: T1, NAD-dependent protein deacetylase sirtuin-1 (Homo sapiens) (UniProt Q96EB6); assay: Inhibition of recombinant GST-SIRT1 (unknown origin) using KI177 as substrate at 50 uM after 45 mins by fluorescence assay
T1 sequence (whole entry): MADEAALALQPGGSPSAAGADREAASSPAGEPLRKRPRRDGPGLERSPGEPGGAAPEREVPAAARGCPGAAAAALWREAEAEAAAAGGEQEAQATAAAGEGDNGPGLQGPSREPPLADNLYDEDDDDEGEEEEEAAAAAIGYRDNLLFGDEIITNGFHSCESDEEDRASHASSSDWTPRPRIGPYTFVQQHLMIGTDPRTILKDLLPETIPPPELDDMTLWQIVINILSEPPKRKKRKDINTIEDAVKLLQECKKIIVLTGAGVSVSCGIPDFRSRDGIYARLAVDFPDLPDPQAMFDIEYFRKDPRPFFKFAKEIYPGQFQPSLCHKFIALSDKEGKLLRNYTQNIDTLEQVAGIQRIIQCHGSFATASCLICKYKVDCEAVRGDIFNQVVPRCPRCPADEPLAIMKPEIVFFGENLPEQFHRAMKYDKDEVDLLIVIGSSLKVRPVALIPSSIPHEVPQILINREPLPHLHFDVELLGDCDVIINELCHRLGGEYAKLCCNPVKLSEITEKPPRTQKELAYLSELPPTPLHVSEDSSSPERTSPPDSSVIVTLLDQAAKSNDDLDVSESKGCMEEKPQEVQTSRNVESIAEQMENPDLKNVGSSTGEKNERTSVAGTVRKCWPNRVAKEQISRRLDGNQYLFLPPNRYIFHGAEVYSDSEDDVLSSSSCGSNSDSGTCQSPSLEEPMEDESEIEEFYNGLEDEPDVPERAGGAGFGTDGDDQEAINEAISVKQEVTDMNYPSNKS

[2] = target: T2, NAD-dependent protein deacetylase sirtuin-2 (Homo sapiens) (UniProt Q8IXJ6); assay: Inhibition of recombinant GST-SIRT2 (unknown origin) using KI179 as substrate at 200 uM after 45 mins by fluorescence assay
T2 sequence (whole entry): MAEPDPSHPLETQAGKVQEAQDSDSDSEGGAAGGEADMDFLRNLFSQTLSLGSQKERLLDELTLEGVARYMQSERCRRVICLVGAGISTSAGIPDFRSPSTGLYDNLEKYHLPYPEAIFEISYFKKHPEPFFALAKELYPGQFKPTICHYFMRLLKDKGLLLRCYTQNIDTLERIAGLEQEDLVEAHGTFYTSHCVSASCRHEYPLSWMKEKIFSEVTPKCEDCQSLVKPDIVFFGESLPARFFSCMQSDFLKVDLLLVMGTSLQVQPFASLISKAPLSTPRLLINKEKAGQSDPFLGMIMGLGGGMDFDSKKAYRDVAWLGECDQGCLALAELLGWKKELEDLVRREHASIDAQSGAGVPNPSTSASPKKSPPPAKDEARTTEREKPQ

[3] = Cytotoxicity against human H460 cells after 72 hrs by MTT assay; assay type: functional, cell-based; details: NCI-H460, 72 h
[4] = target: T3, NAD-dependent protein deacetylase sirtuin-3, mitochondrial (Homo sapiens) (UniProt Q9NTG7); assay: Inhibition of recombinant His-SIRT3 (unknown origin) using KI179 as substrate at 200 uM after 45 mins by fluorescence assay
T3 sequence (whole entry): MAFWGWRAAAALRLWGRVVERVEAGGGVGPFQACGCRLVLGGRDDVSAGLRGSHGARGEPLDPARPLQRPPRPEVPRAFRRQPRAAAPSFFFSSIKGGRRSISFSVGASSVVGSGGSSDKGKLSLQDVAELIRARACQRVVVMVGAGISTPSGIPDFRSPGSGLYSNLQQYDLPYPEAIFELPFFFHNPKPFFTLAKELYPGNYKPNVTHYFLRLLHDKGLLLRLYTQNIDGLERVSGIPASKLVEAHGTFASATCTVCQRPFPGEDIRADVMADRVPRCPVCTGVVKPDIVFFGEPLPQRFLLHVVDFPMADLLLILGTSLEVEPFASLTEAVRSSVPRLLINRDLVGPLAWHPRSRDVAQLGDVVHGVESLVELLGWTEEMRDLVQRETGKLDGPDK

[5] = target: T3, NAD-dependent protein deacetylase sirtuin-3, mitochondrial (Homo sapiens); assay: Inhibition of recombinant His-SIRT3 (unknown origin) using KI179 as substrate at 168 uM after 45 mins by fluorescence assay
[6] = target: T4, DNA topoisomerase 1 (Homo sapiens) (UniProt P11387); assay: Inhibition of human recombinant topoisomerase 1-mediated DNA cleavage assessed as formation of nicked DNA from supercoiled pBR322 DNA up to 100 uM after 60 mins by agarose gel electrophoresis
T4 sequence (whole entry): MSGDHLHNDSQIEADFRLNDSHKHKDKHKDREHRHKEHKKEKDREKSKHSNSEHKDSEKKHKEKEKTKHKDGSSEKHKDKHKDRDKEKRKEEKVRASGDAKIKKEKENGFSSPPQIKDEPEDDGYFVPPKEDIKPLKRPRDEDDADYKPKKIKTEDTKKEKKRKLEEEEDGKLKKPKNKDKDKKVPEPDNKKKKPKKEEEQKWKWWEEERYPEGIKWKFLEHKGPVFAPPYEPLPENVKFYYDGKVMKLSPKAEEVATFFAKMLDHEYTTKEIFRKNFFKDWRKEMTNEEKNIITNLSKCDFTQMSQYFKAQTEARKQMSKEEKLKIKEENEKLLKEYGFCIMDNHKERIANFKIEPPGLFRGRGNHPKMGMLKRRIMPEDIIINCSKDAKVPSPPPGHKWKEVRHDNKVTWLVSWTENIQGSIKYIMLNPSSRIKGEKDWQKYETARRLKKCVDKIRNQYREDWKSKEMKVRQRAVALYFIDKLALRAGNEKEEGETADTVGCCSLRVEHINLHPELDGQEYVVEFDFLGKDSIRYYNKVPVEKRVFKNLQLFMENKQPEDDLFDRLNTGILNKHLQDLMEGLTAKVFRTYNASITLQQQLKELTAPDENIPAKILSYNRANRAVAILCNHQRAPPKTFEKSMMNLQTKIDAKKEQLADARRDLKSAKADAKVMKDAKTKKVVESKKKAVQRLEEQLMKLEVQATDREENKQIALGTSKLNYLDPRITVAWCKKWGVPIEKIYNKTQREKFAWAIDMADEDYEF

[7] = target: T4, DNA topoisomerase 1 (Homo sapiens); assay: Inhibition of human recombinant topoisomerase 1-mediated relaxation of supercoiled pBR322 at 50 to 100 uM after 60 mins by agarose gel electrophoresis
[8] = target: T2, NAD-dependent protein deacetylase sirtuin-2 (Homo sapiens); assay: Inhibition of recombinant GST-SIRT2 (unknown origin) using KI179 as substrate at 168 uM after 45 mins by fluorescence assay
[9] = target: T4, DNA topoisomerase 1 (Homo sapiens); assay: Inhibition of human recombinant topoisomerase 1-mediated relaxation of supercoiled pBR322 at 500 uM after 60 mins by agarose gel electrophoresis

## COC(=O)[C@H]1Cc2c([nH]c3ccccc23)[C@@H]2N(C)c3ccccc3C(=O)N12
HepG2
  viability, % of control at 15 µM: 90%
MCF7
  viability, % of control at 15 µM: 96%
[1]
  inhibition: 7.8%
[2]
  inhibition: 78%
[3]
  IC50: 24 µM
[4]
  inhibition: 17%

## CN1CCN(C(=O)[C@H]2Cc3c([nH]c4ccccc34)[C@@H]3N(C)c4ccccc4C(=O)N23)CC1
HepG2
  viability, % of control at 15 µM: 91%
MCF7
  viability, % of control at 15 µM: 74%
[3]
  IC50: 55 µM

## CN1c2ccccc2C(=O)N2[C@@H](C(=O)O)Cc3c([nH]c4ccccc34)[C@H]12
HepG2
  viability, % of control at 15 µM: 107%
MCF7
  viability, % of control at 15 µM: 103%
[3]
  IC50: > 30 µM

## CN1c2ccccc2C(=O)N2[C@H](C(=O)N3CCSCC3)Cc3c([nH]c4ccccc34)[C@@H]12
HepG2
  viability, % of control at 15 µM: 90%
MCF7
  viability, % of control at 15 µM: 103%
[1]
  inhibition: 8.2%
[2]
  inhibition: 35%
[3]
  IC50: 86.8 µM

## CN1c2ccccc2C(=O)N2[C@@H](C(=O)N3CCCCC3)Cc3c([nH]c4ccccc34)[C@H]12
HepG2
  viability, % of control at 15 µM: 75%
MCF7
  viability, % of control at 15 µM: 63%
[3]
  IC50: 8.5 µM

## CN1c2ccccc2C(=O)N2[C@@H](C(=O)N3CCOCC3)Cc3c([nH]c4ccccc34)[C@H]12
HepG2
  viability, % of control at 15 µM: 94%
MCF7
  viability, % of control at 15 µM: 72%
[3]
  IC50: 58.3 µM

## CN1c2ccccc2C(=O)N2[C@H](C(=O)N3CCOCC3)Cc3c([nH]c4ccccc34)[C@@H]12
HepG2
  viability, % of control at 15 µM: 88%
MCF7
  viability, % of control at 15 µM: 131%
[1]
  inhibition: 4.1%
[2]
  inhibition: 36%
[3]
  IC50: 73 µM

## COC(=O)[C@@H]1Cc2c([nH]c3ccccc23)[C@H]2N(C)c3ccccc3C(=O)N12
HepG2
  viability, % of control at 15 µM: 101%
MCF7
  viability, % of control at 15 µM: 90%
[1]
  inhibition: 3.3%
[2]
  inhibition: 80%
[3]
  IC50: 35 µM
[4]
  inhibition: 21%

## CN1c2ccccc2C(=O)N2CCc3c([nH]c4ccccc34)[C@@H]21 [EVODIAMINE]
HepG2
  viability, % of control at 15 µM: 76%
MCF7
  viability, % of control at 15 µM: 51%
[1]
  inhibition: 1.1%
[5]
  inhibition: 21%
[6]
  inhibition: inactive
[7]
  inhibition: inactive
[3]
  IC50: 13.2 µM
[8]
  inhibition: 58%
[9]
  inhibition: Active

## CN1c2ccccc2C(=O)N2[C@H](C(=O)N3CCCCC3)Cc3c([nH]c4ccccc34)[C@@H]12
HepG2
  viability, % of control at 15 µM: 110%
MCF7
  viability, % of control at 15 µM: 85%
[1]
  inhibition: 6.5%
[2]
  inhibition: 46%
[3]
  IC50: 49 µM

## CN1c2ccccc2C(=O)N2CCc3c([nH]c4ccccc34)[C@H]21
HepG2
  viability, % of control at 15 µM: 69%
MCF7
  viability, % of control at 15 µM: 44%
[1]
  inhibition: 4.2%
[5]
  inhibition: 20%
[6]
  inhibition: inactive
[7]
  inhibition: inactive
[3]
  IC50: 2.6 µM
[8]
  inhibition: 71%
[9]
  inhibition: Active

## CN1c2ccccc2C(=O)N2[C@H](C(=O)O)Cc3c([nH]c4ccccc34)[C@@H]12
HepG2
  viability, % of control at 15 µM: 107%
MCF7
  viability, % of control at 15 µM: 128%
[1]
  inhibition: 26%
[2]
  inhibition: 60%
[3]
  IC50: 60 µM
[4]
  inhibition: 61%

## CNC(=O)[C@H]1Cc2c([nH]c3ccccc23)[C@@H]2N(C)c3ccccc3C(=O)N12
HepG2
  viability, % of control at 15 µM: 101%
MCF7
  viability, % of control at 15 µM: 108%
[3]
  IC50: > 30 µM

## CN1CCN(C(=O)[C@@H]2Cc3c([nH]c4ccccc34)[C@H]3N(C)c4ccccc4C(=O)N23)CC1
HepG2
  viability, % of control at 15 µM: 83%
MCF7
  viability, % of control at 15 µM: 68%
[1]
  inhibition: 5.3%
[2]
  inhibition: 43%
[3]
  IC50: 66 µM

## CNC(=O)[C@@H]1Cc2c([nH]c3ccccc23)[C@H]2N(C)c3ccccc3C(=O)N12
HepG2
  viability, % of control at 15 µM: 101%
MCF7
  viability, % of control at 15 µM: 94%
[1]
  inhibition: 6.4%
[2]
  inhibition: 62%
[3]
  IC50: 53 µM
[4]
  inhibition: 26%

## CN1c2ccccc2C(=O)N2[C@@H](C(=O)N3CCSCC3)Cc3c([nH]c4ccccc34)[C@H]12
HepG2
  viability, % of control at 15 µM: 89%
MCF7
  viability, % of control at 15 µM: 105%
[3]
  IC50: > 100 µM
